Experimental data from patent US11613552B2, “Pharmaceutical agents, compositions, and methods relating thereto” (Alltech, Inc., priority 2017, dated 2023).

Tests used:
Insrβ = molecular target: T1, Insrβ (Mus musculus, UniProt P15208); assay: Western blot of Insrβ phosphorylation in skeletal muscle of Lepr^db/db mice; assay type: in vivo; conditions: 0.136 mg/kg ip daily
T1 construct: gastrocnemius skeletal muscle and liver samples were collected and stored at −80° C; from tissue; host or cells: gastrocnemius skeletal muscle (A22) and liver (A24) of Lepr db/db mice
T1 sequence (P15208 753-1372 limits assumed): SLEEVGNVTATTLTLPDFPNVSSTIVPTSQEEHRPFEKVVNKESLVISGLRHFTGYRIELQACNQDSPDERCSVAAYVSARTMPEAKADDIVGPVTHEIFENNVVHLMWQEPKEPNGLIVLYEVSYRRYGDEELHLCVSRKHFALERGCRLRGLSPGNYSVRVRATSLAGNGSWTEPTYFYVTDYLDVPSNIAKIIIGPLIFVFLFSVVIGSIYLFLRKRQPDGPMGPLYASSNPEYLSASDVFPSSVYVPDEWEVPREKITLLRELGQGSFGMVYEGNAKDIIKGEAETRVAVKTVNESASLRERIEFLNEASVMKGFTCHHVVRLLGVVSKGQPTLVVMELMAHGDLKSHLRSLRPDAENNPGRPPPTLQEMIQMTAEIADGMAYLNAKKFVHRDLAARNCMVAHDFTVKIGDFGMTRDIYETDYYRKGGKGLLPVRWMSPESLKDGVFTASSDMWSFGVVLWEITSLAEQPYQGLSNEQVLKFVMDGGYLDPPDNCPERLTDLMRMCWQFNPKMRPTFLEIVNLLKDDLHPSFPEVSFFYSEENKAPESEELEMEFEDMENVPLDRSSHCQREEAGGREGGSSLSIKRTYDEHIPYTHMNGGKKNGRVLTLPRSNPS
T1 sequence (P15208 28-748 partner limits assumed): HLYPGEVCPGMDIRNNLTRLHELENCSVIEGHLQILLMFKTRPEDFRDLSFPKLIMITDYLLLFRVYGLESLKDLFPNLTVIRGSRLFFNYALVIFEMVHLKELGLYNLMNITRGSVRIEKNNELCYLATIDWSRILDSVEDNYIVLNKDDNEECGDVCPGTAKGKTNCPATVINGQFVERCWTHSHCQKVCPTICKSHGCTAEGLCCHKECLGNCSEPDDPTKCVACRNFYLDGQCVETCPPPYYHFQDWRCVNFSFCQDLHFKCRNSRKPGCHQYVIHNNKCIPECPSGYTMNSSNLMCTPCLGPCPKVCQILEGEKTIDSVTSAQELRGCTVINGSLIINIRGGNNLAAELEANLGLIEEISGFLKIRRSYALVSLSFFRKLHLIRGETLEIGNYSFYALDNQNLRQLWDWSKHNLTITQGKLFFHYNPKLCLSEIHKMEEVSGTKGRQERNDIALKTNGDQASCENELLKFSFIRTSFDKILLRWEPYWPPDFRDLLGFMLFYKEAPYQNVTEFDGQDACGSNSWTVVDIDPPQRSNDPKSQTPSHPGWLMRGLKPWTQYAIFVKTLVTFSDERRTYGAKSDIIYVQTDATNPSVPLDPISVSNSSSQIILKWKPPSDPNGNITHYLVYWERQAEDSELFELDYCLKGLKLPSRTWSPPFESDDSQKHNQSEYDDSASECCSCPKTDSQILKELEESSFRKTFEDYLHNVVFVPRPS
Method: Male Lepr^db/db mice (C57BL/6J strain, purchased from The Jackson Laboratory) at postnatal day 38 were intraperitoneally injected daily with physiological saline ([…]) containing 0.2% DMSO, or 0.136 mg of Compound #43 per kilogram body weight, diluted in the sterile physiological saline) for 52 days. After the treatment, gastrocnemius skeletal muscle and liver samples were collected and stored at −80° C.
Frozen skeletal muscle and liver tissues were minced in sterile ice-old PBS containing complete proteinase and phosphatase inhibitors (Thermo-Fisher Scientific, Waltham, Mass.) and subjected to homogenization using a tissue homogenizer (Thermo-Fisher Scientific, Waltham, Mass.). These tissue homogenates were diluted in Themo-Fisher's premade RIPA buffer (1 part homogenate/2 part of RIPA buffer) containing complete proteinase/phosphatase inhibitors to extract the proteins. Proteins in the homogenates were extracted in RIPA buffer at 4° C. overnight. These overnight-extracted protein/tissue lysates were centrifuged at 12000×g for 30 min at 4° C., and the protein levels in the supernatant of these tissue lysates were determined using the Pierce Micro-BCA protein assay kit (Thermo Scientific-Piece Biotechnology, Rockford, Ill.) according to the manufacturer's protocol. […]

Lepr^db/db mice = assay: Acute treatment: blood glucose in Lepr^db/db mice; assay type: in vivo, mouse
Method: After overnight fasting, 8-10-week-old Lepr^db/db mice were intraperitoneally injected with physiological saline ([…]) containing 0.2% DMSO, or Compound #43 (0.0054, 0.054, 0.54, or 5.4 mg Compound #43 (the compound stock was diluted in sterile physiological saline) per kilogram of body weight. Following the injection of saline or compound, mice were returned to their cages with free access to water but not chow for 1, 2, 3, 5 and 8 hr. At each time point after injection, a small drop of blood was collected from the tail of each mouse for glucose assay.
Additional 6-week old Lepr^db/db mice under non-fasting conditions were intraperitoneally injected with physiological saline ([…]) containing 0.2% DMSO, or a single dose of Compound #43 (5.4 mg compound/kg body weight). After injection, animals were returned back to their cages with free access to water and chow. After 24 hr, a small drop of blood from the mouse tail was collected for glucose assay.
After treatment with physiological saline or compounds or after the injection of a bolus of glucose, a small drop of blood from each mouse was collected by snipping the mouse tail tip. Blood glucose levels were determined using a Glucometer with a maximum capability for glucose measurement of 600 mg/dL.

Glut4 = assay: QRT-PCR of Glut4 mRNA in livers of Lepr^db/db mice; assay type: in vivo, mouse; conditions: 25 μg selenium/kg ip daily, 52 days (FIG. 15)
Method: Male Lepr^db/db mice (C57BL/6J strain, purchased from The Jackson Laboratory) at postnatal day 38 were intraperitoneally injected daily with physiological saline ([…]) containing 0.2% DMSO, Compound #43, or Compound #50 (25 μg selenium of each compound per kilogram body weight, diluted in sterile physiological saline) for 52 days. After treatment, livers were collected and subjected to RNA analysis.
Total liver RNA from saline- or Compound #43-treated Lepr^db/db mice was isolated using a Qiagen RNAeasy RNA isolation kit according to the Manufacturer's protocol. Total RNA from cultured cells was isolated using Trizol (Invitrogen) according to the manufacturer's protocol, and then incubated with DNase I to remove any potential contaminating genomic DNA. RNA samples were subjected to real-time PCR analysis using Applied-Bioscience's RT kit and predesigned Taqman probes (Invitrogen), as described previously (Lan et al EMBO J 2003). Data were normalized by Actin B (Actb) mRNA levels in each sample and are presented as mean±SEM of 3-5 samples.

[1] = Body weight, gross morphology and walking behavior of treated Lepr^db/db mice; assay type: in vivo
Method: Body weights of the above treated mice were recorded daily using a balance and any visible abnormal animal gross morphology and walking behavior were monitored daily. After the treatments, animals were fasted overnight and then subjected to blood glucose or HbA1c assays, glucose tolerance tests or tissue collections.
After the treatments for 43 days, animals were fasted overnight and then subjected to blood glucose and glucose tolerance tests. After daily treatments of these compounds for 90 days, sera from these animals were collected and then subjected to blood HbA1c assays.

Which “increase of phosphorylated Insrβ (Tyrosine 1146) in skeletal muscle” value (Insrβ; 52 days (FIG. 20B)) does the source give for `C[Se]C[C@H]1O[C@@H](n2cnc3c(N)ncnc32)C(OC(C)=O)C1OC(C)=O` (stereo partly drawn) [Compound #43, Adenosine, 5′-Se-methyl-5′-selino-, 2′,3′-diacetate] here?
Its value is roughly 2.5 fold.

What about the “total Insrβ protein levels in skeletal muscle” value (Insrβ; 52 days (FIG. 20C)) of the same molecule?
The value was “no significant change of total Insrβ protein levels”.

And the “decrease of blood glucose levels” value (Lepr^db/db mice; 5.4 mg/kg single ip, 24 hr, 6-week-old mice, ad-libitum feeding (FIG. 7))?
Its value is “about 20%”.

And the “duration of effectiveness in lowering glucose output” value (Lepr^db/db mice; 5.4 mg/kg single ip, feeding conditions)?
Its value is “at least 24 hr”.

What about the “effect on blood glucose levels vs saline” value (Lepr^db/db mice; single ip 0.0054, 0.054, 0.54, 5.4 mg/kg, fasting, 1-8 hr (FIG. 6)) of the same molecule?
Its value is “significant decrease of blood glucose levels”.

And the duration of activity (Lepr^db/db mice; single ip injection, fasting)?
Its duration of activity is “at least 8 hours”.

And the “onset of action post-treatment” value (Lepr^db/db mice; single ip injection, fasting)?
Its value is no more than 1 h.

And the “time of peak activity in reducing blood glucose levels” value (Lepr^db/db mice; single ip injection, fasting conditions)?
Its value is 2 to 5 h.

And the “increase in Glut4 mRNA expression levels in the liver” value (Glut4)?
The value was 5 fold.

And the “overt toxic effects (morphology, walking behavior, body weight)” value ([1]; 25 μg selenium or sulfur/kg ip daily, 3 months)?
The value was “no overt toxic effects”.

And the “overt toxic effects (morphology, walking behavior, body weight)” value ([1]; 25 μg selenium/kg ip daily, 90 days, from 41 days of age)?
Its value is “no overt toxic effects”.

And the “visible toxic effects on gross morphological and walking behavior” value ([1]; acute single ip injection, 0.0054-5.4 mg/kg)?
The value was “did not cause any visible toxic effects”.
